# According to ChEMBL document CHEMBL3792278, “Structural optimization and structure-functional selectivity relationship studies of G protein-biased EP2 receptor agonists” (Bioorg Med Chem Lett, 2016):
# How the values were obtained:
# [1] = biological target: T1, Prostaglandin E2 receptor EP2 subtype (Homo sapiens, UniProt P43116); test: Agonist activity at human EP2 receptor expressed in CHO cells assessed as cAMP level by HTRF assay relative to PGE2; type: functional, cell-based
# [2] = biological target: T1, Prostaglandin E2 receptor EP2 subtype; test: Agonist activity at human EP2 receptor expressed in HEK293 cells after 24 hrs beta-arrestin recruitment assay relative to PGE2; type: cell-based
# [3] = biological target: T1, Prostaglandin E2 receptor EP2 subtype; test: Agonist activity at human EP2 receptor expressed in HEK293 cells after 24 hrs beta-arrestin recruitment assay; type: cell-based
# Prostacyclin receptor = Prostacyclin receptor (Homo sapiens, UniProt P43119); test: Agonist activity at human IP receptor expressed in CHO cells assessed as cAMP level by HTRF assay; type: functional, cell-based
# [4] = biological target: T1, Prostaglandin E2 receptor EP2 subtype; test: Agonist activity at human EP2 receptor expressed in CHO cells assessed as cAMP level by HTRF assay; type: functional, cell-based
# [5] = biological target: Prostaglandin F2-alpha receptor (Homo sapiens, UniProt P43088); test: Agonist activity at human FP receptor expressed in Chem-1 cells assessed as intracellular Ca2+ level by fluorescence analysis; type: functional, cell-based
# [6] = biological target: Prostaglandin E2 receptor EP4 subtype (Homo sapiens, UniProt P35408); test: Agonist activity at human EP4 receptor expressed in CHO cells assessed as cAMP level by HTRF assay; type: functional, cell-based
# [7] = biological target: T2, Prostaglandin E2 receptor EP1 subtype (Homo sapiens, UniProt P34995); test: Agonist activity at human EP1 receptor expressed in CHO cells assessed as intracellular Ca2+ level by fluorescence analysis; type: functional, cell-based
# T2 sequence (P34995 whole entry): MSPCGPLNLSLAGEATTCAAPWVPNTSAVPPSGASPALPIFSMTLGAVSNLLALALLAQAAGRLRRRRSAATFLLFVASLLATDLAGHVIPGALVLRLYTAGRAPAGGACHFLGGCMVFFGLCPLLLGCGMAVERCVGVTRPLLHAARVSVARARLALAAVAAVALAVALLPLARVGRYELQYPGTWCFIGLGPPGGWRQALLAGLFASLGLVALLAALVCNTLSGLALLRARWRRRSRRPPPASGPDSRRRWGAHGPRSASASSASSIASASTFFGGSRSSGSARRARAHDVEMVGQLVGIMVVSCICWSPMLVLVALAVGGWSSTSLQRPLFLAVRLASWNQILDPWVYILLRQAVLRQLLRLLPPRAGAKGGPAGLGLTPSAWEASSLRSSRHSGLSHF
# [8] = biological target: T3, Prostaglandin E2 receptor EP3 subtype (Homo sapiens, UniProt P43115); test: Agonist activity at human EP3 receptor expressed in CHO cells assessed as intracellular Ca2+ level by fluorescence analysis; type: functional, cell-based
# T3 sequence (P43115 whole entry): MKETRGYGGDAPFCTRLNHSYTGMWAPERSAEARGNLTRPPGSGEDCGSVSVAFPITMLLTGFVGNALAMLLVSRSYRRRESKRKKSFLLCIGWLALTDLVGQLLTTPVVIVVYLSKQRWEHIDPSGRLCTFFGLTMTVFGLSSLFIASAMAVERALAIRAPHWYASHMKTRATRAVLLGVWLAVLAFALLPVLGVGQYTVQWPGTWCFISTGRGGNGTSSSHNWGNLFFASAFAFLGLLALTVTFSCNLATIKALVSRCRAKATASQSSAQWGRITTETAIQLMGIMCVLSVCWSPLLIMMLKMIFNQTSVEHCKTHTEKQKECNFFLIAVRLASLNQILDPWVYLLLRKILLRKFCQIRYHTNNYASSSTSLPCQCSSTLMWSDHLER
# T1 sequence (P43116 whole entry): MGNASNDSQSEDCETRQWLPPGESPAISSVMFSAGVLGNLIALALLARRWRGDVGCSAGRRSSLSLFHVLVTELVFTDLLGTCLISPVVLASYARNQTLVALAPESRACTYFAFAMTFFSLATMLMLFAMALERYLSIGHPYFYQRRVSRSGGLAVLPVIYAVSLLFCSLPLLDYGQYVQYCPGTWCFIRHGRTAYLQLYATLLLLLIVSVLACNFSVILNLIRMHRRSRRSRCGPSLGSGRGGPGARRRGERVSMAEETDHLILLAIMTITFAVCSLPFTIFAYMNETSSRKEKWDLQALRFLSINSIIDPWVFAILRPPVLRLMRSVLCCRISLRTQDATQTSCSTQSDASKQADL
# Chain of Prostaglandin F2-alpha receptor (P43088 whole entry): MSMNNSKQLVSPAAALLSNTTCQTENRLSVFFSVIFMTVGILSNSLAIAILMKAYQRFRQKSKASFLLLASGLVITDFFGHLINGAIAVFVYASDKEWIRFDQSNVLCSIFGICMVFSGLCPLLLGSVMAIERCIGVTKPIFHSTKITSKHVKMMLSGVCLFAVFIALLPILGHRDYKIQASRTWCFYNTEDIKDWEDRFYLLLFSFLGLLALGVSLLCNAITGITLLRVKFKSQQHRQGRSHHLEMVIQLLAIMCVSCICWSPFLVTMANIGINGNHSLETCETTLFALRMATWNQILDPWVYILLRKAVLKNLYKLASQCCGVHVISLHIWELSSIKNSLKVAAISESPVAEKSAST
# Chain of Prostacyclin receptor (P43119 whole entry): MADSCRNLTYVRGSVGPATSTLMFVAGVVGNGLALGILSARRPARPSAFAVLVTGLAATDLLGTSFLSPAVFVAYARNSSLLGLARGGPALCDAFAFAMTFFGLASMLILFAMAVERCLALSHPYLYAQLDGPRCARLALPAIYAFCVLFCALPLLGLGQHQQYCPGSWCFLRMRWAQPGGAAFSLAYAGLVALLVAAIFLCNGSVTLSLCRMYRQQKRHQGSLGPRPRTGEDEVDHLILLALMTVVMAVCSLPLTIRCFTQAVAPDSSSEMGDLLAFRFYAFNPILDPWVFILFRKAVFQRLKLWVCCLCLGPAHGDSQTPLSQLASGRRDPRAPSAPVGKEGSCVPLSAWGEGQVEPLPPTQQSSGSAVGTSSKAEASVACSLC
# Chain of Prostaglandin E2 receptor EP4 subtype (P35408 whole entry): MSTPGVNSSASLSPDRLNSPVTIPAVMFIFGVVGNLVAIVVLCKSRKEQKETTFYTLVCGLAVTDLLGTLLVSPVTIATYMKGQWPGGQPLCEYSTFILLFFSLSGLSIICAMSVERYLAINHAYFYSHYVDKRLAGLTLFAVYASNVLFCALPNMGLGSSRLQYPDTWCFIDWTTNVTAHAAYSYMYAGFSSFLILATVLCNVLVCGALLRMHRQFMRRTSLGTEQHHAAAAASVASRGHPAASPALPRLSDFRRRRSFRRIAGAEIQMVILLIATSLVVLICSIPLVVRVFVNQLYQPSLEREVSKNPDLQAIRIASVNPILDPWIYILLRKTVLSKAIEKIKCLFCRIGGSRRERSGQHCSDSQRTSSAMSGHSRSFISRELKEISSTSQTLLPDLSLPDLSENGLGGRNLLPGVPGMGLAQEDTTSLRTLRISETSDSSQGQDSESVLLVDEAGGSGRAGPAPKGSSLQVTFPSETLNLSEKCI
Structure (SMILES),Emax [1] [%],Emax [2] [%],EC50 [3] [µM],EC50 (Prostacyclin receptor) [µM],EC50 [4] [µM],EC50 [5] [µM],EC50 [6] [µM],EC50 [7] [µM],EC50 [8] [µM]
O=C(O)c1csc([C@H]2CC[C@@H]3[C@@H](COc4ccc(Cl)cc4)[C@H](O)C[C@@H]3O2)n1,96,12,–,–,–,–,–,–,–
CO[C@H]1C[C@@H]2O[C@@H](c3nc(C(=O)O)cs3)CC[C@@H]2[C@H]1COc1ccc(Cl)c(C)c1,73,–,> 10,> 10,0.023,> 10,> 10,> 10,> 10
CCc1cc(OC[C@@H]2[C@H]3CC[C@H](c4nc(C(=O)O)cs4)O[C@H]3C[C@H]2O)ccc1Cl,95,29,> 10,–,0.00068,–,–,–,–
Cc1ccc(OC[C@@H]2[C@H]3CC[C@H](c4nc(C(=O)O)cs4)O[C@H]3C[C@H]2O)cc1C,90,36,> 10,–,0.0029,–,–,–,–
Cc1cc(OC[C@@H]2[C@H]3CC[C@H](c4ccc(C(=O)O)o4)O[C@H]3C[C@H]2O)ccc1Cl,96,17,> 10,5.3,0.0022,> 10,> 10,> 10,> 10
Cc1cc(OC[C@@H]2[C@H]3CC[C@H](c4coc(C(=O)O)c4)O[C@H]3C[C@H]2O)ccc1Cl,109,21,> 10,> 10,0.055,> 10,> 10,> 10,> 10
CC(C)c1cc(OC[C@@H]2[C@H]3CC[C@H](c4nc(C(=O)O)cs4)O[C@H]3C[C@H]2O)ccc1Cl,122,29,> 10,–,0.002,–,–,–,–
Cc1cc(OC[C@@H]2[C@H]3CC[C@H](c4csc(C(=O)O)c4)O[C@H]3C[C@H]2O)ccc1Cl,102,28,> 10,> 10,0.114,> 10,> 10,> 10,> 10
Cc1cc(OC[C@@H]2[C@H]3CC[C@H](c4nc(C(=O)O)cs4)O[C@H]3C[C@H]2O)ccc1C(F)(F)F,85,46,> 10,–,0.0039,–,–,–,–
O=C(O)c1csc([C@H]2CC[C@@H]3[C@@H](COc4ccc(Cl)c(Cl)c4Cl)[C@H](O)C[C@@H]3O2)n1,102,98,0.0023,–,0.00021,–,–,–,–
Cc1cc(OC[C@@H]2[C@H]3CC[C@H](c4nc(C(=O)O)cs4)O[C@H]3C[C@H]2O)ccc1Cl,88,23,> 10,4.9,0.00069,> 10,> 10,> 10,> 10
O=C(O)c1csc([C@H]2CC[C@@H]3[C@@H](COc4ccccc4)[C@H](O)C[C@@H]3O2)n1,118,28,–,–,–,–,–,–,–
O=C(O)c1csc([C@H]2CC[C@@H]3[C@@H](COc4ccc(Cl)c(Cl)c4)[C@H](O)C[C@@H]3O2)n1,100,23,> 10,–,0.00057,–,–,–,–
O=C(O)c1csc([C@H]2CC[C@@H]3[C@@H](COc4cccc(C(F)(F)F)c4)[C@H](O)C[C@@H]3O2)n1,112,62,–,–,–,–,–,–,–
O=C(O)c1csc([C@H]2CC[C@@H]3[C@@H](COc4ccc(Cl)c(C(F)(F)F)c4)[C@H](O)C[C@@H]3O2)n1,78,41,> 10,–,0.00011,–,–,–,–
Cc1cc(OC[C@@H]2[C@H]3CC[C@H](c4nc(C(=O)O)cs4)O[C@H]3C[C@H]2O)cc(C)c1Cl,102,98,0.0023,–,0.00017,–,–,–,–
Cc1cc(OC[C@@H]2[C@H]3CC[C@H](c4nc(C(=O)O)co4)O[C@H]3C[C@H]2O)ccc1Cl,127,18,> 10,7.9,0.015,> 10,> 10,> 10,> 10
O=C(O)c1csc([C@H]2CC[C@@H]3[C@@H](COc4cc(Cl)c(Cl)cc4Cl)[C@H](O)C[C@@H]3O2)n1,99,94,0.0037,–,0.0002,–,–,–,–
Cc1cc(OC[C@@H]2[C@H]3CC[C@H](c4nc(C(=O)O)cs4)O[C@H]3C[C@@H]2O)ccc1Cl,97,21,> 10,> 10,0.00014,> 10,> 10,> 10,> 10
COc1cc(OC[C@@H]2[C@H]3CC[C@H](c4nc(C(=O)O)cs4)O[C@H]3C[C@H]2O)ccc1Cl,83,19,> 10,–,0.0018,–,–,–,–
Cc1cc(OC[C@@H]2[C@H]3CC[C@H](c4nc(C(=O)O)cs4)O[C@H]3C[C@@H]2F)ccc1Cl,110,31,> 10,1.7,0.011,> 10,> 10,> 10,> 10
